The values below come from EP1296974B1, “2-CYANOPYRROLIDINE DERIVATIVES AND THEIR USE AS MEDICAMENTS” (NOVARTIS AG, priority 2000, dated 2001).

Structures are written as SMILES. Where a name gives a salt, the structure may show the parent alone.

One assay deals with T1, human plasma DPP-IV (Homo sapiens, UniProt P27487).
T1 construct: from tissue; host or cells: human plasma
The assay is described as follows: DPP-IV activity in human plasma (modified Kubota assay). Conditions: substrate H-Glycine-Proline-AMC, 8-point dose-response curves. It counts as biochemical. Here is the method:
(§1) Briefly, 5 µl of plasma are added to 96-well flat-bottom micortiter plates (Falcon), followed by the addition of 5 µl of 80 mM MgCl2 in incubation buffer (25 mMHEPES, 140 mM NaCl, 1% RIA-grade BSA, pH 7.8). After a 60 min. incubation at room temperature, the reaction is initiated by the addition of 10 µl of incubation buffer containing 0.1 mM substrate (H-Glycine-Proline-AMC; AMC is 7-amino-4-methylcoumarin). The plates are covered with aluminum foil (or kept in the dark) and incubated at room temperature for 20 min. […] A fluorescence-concentration curve of free AMC is generated using 0-50 µM solutions of AMC in assay buffer. The curve generated is linear and is used for interpolation of substrate consumption (catalytic activity in nmoles substrate cleaved/min). As with the previous assay, the potency of the test compounds as DPP-IV inhibitors, expressed as IC50, is calculated from 8-point, dose-response curves using a 4 parameter logistic function.

In a further assay the target is T2, rat plasma DPP-IV (Rattus norvegicus, UniProt P14740).
T2 construct: from tissue; host or cells: rat plasma
In words: DPP-IV activity in rat plasma (modified Kubota assay). It counts as biochemical. Conditions: substrate H-Glycine-Proline-AMC, 8-point dose-response curves. Here is the method:
as §1

The next assay deals with T3, DPP-IV (Homo sapiens, UniProt P27487).
T3 construct: The assay is conducted by adding 20 µg solubilized Caco-2 protein; host or cells: Caco-2 (differentiated), NP-40 solubilized cell extract
In words: Caco-2 DPP-IV Assay (inhibition of DPP-IV activity from human colonic carcinoma cell extracts). It counts as biochemical. As to conditions: Caco-2 cell extract, substrate H-Alanine-Proline-pNA, 8-point dose-response curves. As for the experimental part:
The human colonic carcinoma cell line Caco-2 was obtained from the American Type Culture Collection (ATCC HTB 37). Differentiation of the cells to induce DPP-IV expression was accomplished as described by Reisher, et al. in an article entitled "Increased expression of intestinal cell line Caco-2" in Proc. Natl. Acad. Sci., Vol. 90, pgs. […] Cell extract is prepared from cells solubilized in 10mM Tris HCI, 0.15 M NaCl, 0.04 t.i.u.aprotinin, 0.5% nonidet-P40, pH 8.0, which is centrifuged at 35,000 g for 30 min. at 4 °C. to remove cell debris. The assay is conducted by adding 20 µg solubilized Caco-2 protein, diluted to a final volume of 125 µl in assay buffer (25 mM Tris HCI pH 7.4, 140mM NaCl, 10 mM KCI, 1% bovine serum albumin) to microtiter plate wells. After a 60 min. incubation at room temperature, the reaction is initiated by adding 25 µl of 1 mM substrate (H-Alanine-Proline-pNA; pNA is p-nitroaniline). […] A standard curve of free p-nitroaniline is generated using 0-500 µM solutions of free pNA in assay buffer. The curve generated is linear and is used for interpolation of substrate consumption (catalytic activity in nmoles substrate cleaved /min).
The potency of the test compounds as DPP-IV inhibitors, expressed as IC50, is calculated from 8-point, dose-response curves using a 4-parameter logistic function.

The target of another assay is T4, plasma DPP-IV (Rattus norvegicus, UniProt P14740).
T4 construct: from tissue; host or cells: plasma of male Sprague-Dawley rats dosed orally (in vivo / ex vivo read-out)
The assay is described as follows: Plasma DPP-IV activity after oral dosing in insulin resistant rats (oral glucose challenge study). It counts as in vivo, Male Sprague-Dawley rats. As to conditions: 10 µmol/kg orally, ten minutes prior to glucose (1 g/kg p.o.), n=7-8, read-out: inhibition of plasma DPP-IV activity during the study. From the text: (§2) More specifically, for example, the compounds of formula 1, and their corresponding pharmaceutically acceptable acid addition salts, improve early insulin response to an oral glucose challenge and, therefore, are useful in treating non-insulin-dependent diabetes mellitus. The ability of the compounds of formula I, and their corresponding pharmaceutically acceptable acid addition salts, to improve early insulin response to an oral glucose challenge may be measured in insulin resistant rats according to the following method:
(§3) Male Sprague-Dawley rats that had been fed a high fat diet (saturated fat = 57% calories) for 2-3 weeks were fasted for approximately 2 hours on the day of testing, divided into groups of 7-10, and dosed orally with 10 µmol/kg of test compound in carboxymethylcellulose. […] Blood samples, obtained at various time-points from chronic jugular vein catheters, were analyzed for plasma glucose concentration. Data are expressed as % decrease of the area under the plasma glucose curve compared to vehicle-treated control animals.

Assay [1] in a line: Oral glucose challenge in insulin resistant high fat fed rats: plasma glucose excursion. Type of assay: in vivo, Male Sprague-Dawley rats. As to conditions: 10 µmol/kg orally; glucose 1 g/kg p.o.; % decrease of area under the plasma glucose curve compared to vehicle-treated control animals.
Source text: as §2, §3

T3 sequence (P27487 whole entry): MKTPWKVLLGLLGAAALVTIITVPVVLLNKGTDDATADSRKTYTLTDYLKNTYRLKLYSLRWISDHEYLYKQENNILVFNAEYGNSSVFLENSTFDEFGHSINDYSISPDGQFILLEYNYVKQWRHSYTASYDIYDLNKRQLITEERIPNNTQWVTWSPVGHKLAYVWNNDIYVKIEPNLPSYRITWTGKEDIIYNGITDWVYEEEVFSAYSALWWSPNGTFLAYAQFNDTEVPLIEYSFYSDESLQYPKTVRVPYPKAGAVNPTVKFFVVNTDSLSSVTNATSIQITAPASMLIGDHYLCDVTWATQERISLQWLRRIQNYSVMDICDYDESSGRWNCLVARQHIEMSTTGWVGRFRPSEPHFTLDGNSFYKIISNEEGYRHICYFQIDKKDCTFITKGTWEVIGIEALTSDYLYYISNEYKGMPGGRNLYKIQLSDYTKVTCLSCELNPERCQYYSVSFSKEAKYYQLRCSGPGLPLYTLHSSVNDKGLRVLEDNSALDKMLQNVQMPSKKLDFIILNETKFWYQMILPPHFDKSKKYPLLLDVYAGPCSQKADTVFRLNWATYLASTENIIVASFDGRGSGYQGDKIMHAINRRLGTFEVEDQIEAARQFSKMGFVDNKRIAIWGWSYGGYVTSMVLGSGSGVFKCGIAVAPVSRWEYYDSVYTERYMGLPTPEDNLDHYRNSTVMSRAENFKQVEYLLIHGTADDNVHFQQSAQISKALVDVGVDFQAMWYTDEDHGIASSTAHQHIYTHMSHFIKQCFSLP
T1 sequence (P27487 39-766 limits assumed): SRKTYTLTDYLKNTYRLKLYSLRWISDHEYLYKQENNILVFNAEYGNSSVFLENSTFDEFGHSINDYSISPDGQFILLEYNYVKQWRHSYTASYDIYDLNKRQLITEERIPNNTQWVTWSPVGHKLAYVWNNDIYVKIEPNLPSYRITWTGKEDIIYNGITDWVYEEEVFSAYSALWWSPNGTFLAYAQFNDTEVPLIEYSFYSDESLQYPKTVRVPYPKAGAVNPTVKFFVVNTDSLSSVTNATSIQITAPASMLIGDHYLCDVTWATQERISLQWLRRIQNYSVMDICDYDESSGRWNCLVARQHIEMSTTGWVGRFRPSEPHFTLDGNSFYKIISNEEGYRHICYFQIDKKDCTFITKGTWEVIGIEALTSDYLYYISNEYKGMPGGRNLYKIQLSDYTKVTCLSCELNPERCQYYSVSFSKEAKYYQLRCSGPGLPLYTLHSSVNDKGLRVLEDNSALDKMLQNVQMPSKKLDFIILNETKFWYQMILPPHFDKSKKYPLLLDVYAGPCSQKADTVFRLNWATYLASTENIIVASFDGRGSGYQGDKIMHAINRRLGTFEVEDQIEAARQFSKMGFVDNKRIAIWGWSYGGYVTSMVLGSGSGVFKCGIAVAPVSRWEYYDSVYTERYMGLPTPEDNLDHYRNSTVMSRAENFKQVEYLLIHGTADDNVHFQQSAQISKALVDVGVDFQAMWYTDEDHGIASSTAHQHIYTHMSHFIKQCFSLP
T2 sequence (P14740 37-767 limits assumed): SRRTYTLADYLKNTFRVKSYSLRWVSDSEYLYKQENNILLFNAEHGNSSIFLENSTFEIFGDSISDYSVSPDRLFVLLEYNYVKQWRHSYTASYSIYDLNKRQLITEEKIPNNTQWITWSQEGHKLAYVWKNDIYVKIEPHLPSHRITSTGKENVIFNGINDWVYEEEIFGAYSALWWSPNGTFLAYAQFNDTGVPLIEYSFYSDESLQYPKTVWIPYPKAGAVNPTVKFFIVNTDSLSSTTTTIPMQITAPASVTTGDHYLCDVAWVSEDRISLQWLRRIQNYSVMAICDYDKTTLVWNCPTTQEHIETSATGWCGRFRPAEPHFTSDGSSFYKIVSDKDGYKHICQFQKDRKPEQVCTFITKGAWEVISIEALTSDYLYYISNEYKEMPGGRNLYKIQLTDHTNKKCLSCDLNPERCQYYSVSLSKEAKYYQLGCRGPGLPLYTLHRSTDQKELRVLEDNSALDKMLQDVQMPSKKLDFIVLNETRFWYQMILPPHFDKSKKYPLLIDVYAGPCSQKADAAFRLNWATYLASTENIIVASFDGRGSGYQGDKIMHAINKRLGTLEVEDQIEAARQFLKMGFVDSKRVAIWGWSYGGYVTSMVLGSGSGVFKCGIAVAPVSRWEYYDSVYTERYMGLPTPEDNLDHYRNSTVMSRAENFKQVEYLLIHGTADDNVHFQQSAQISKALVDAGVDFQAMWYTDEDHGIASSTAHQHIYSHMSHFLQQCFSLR
T4 sequence (P14740 37-767 limits assumed): as above

As to `N#C[C@@H]1CCCN1C(=O)CNC1CCC(Oc2ccc(C(F)(F)F)cc2)CC1` (stereo partly drawn) [Ex. 2EE, 1-[[[4-[4-(trifluoromethyl)phenoxy]cyclohexyl]amino]acetyl]-2-cyano-(S)-pyrrolidine, monohydrochloride], the values for the IC50 on human plasma DPP-IV, against rat plasma DPP-IV and on DPP-IV were 150 nM, 46 nM and 23 nM, respectively.

As for `N#C[C@@H]1CCCN1C(=O)CNC1CCC(Nc2nc3cc(Cl)ccc3s2)CC1` (stereo partly drawn) [Ex. 2Y, 1-[[[4-[(5-chloro-2-benzothiazolyl)amino]cyclohexyl]amino]acetyl]-2-cyano-(S)-pyrrolidine, dihydrochloride], the concentration for half-maximal inhibition (IC50) was determined as 124 nM against human plasma DPP-IV, 37 nM at rat plasma DPP-IV and 12 nM against DPP-IV.

On to `CC(C)(CNc1ccc(Cl)cn1)NCC(=O)N1CCC[C@H]1C#N` [Ex. 1, 1-[[[2-[(5-Chloro-2-pyridinyl)amino]-1,1-dimethylethyl]amino]acetyl]-2-cyano-(S)-pyrrolidine, monohydrochloride], for which the half-inhibitory concentration (IC50) is 30 nM on human plasma DPP-IV, 6 nM against rat plasma DPP-IV and 2 nM on DPP-IV.

As for `N#C[C@@H]1CCCN1C(=O)CNC1CCN(S(=O)(=O)c2ccc(Cl)cc2)CC1` [Ex. 3, 1-[[[1-[(4-Chlorophenyl)sulfonyl]-4-piperidinyl]amino]acetyl]-2-cyano-(S)-pyrrolidine, monohydrochloride], the 50% inhibitory concentration (IC50) at human plasma DPP-IV stood at 204 nM; against rat plasma DPP-IV, 107 nM; at DPP-IV it was 124 nM.

Take `N#C[C@@H]1CCCN1C(=O)CNC1CCC(Nc2ccnc(Cl)n2)CC1` (stereo partly drawn) [Ex. 2S, 1-[[[4-[(2-chloro-4-pyrimidinyl)amino]cyclohexyl]amino]acetyl]-2-cyano-(S)-pyrrolidine, dihydrochloride]: the 50% inhibitory concentration (IC50) was 4 nM on human plasma DPP-IV, 2 nM at rat plasma DPP-IV and 3 nM on DPP-IV.

Turning to `N#C[C@@H]1CCCN1C(=O)CNC1CCC(NC(=O)c2ccccc2)CC1` (stereo partly drawn) [Ex. 2N, 1-[[[4-(benzoylamino)cyclohexyl]amino]acetyl]-2-cyano-(S)-pyrrolidine], the inhibition at 10 µmol/kg at plasma DPP-IV was 80%. Also, the IC50 against human plasma DPP-IV is 10 nM; against rat plasma DPP-IV it was 5 nM; on DPP-IV it was 5 nM. Moreover, the “Decrease of plasma glucose excursion at 10 µmovkg (p=0.01)” value in assay [1] was 39%.

For the compound `N#Cc1ccc(NC2CCC(NCC(=O)N3CCC[C@H]3C#N)CC2)cc1` (stereo partly drawn) [Ex. 2W, 1-[[[4-[(4-cyanophenyl)amino]cyclohexyl]amino]acetyl]-2-cyano-(S)-pyrrolidine, dihydrochloride], the IC50 turned out to be 19 nM against human plasma DPP-IV, 7 nM against rat plasma DPP-IV and 13 nM against DPP-IV.

With `N#C[C@@H]1CCCN1C(=O)CNC1CCC(NS(=O)(=O)c2ccccc2)CC1` (stereo partly drawn) [Ex. 2M, 1-[[[4-[(phenylsulfonyl)amino]cyclohexyl]amino]acetyl]-2-cyano-(S)-pyrrolidine, monohydrochloride], the IC50 at human plasma DPP-IV is 10 nM; at rat plasma DPP-IV, 6 nM; against DPP-IV, 34 nM.

Turning to `CC(C)(C)C(=O)NC1CCC(NCC(=O)N2CCC[C@H]2C#N)CC1` (stereo partly drawn) [Ex. 2U, 1-[[[4-[(2,2-dimethyl-1-oxopropyl)amino]cyclohexyl]amino]acetyl]-2-cyano-(S)-pyrrolidine, monohydrochloride], the IC50 was 27 nM at human plasma DPP-IV, 14 nM at rat plasma DPP-IV and 39 nM on DPP-IV.
